One data set relates to Human enriched platelets. The data set can be described thus: Platelet aggregation inhibition activity (collagen, whole-blood aggregometer). The data set is classed as cell-based. Particulars: for Platelet Aggregation Activity: AUC sample/AUC DMSO x 100; for Platelet Aggregation Curve: Amplitude / Platelet Aggregation Curve: Area under curve / Platelet Aggregation Curve: Lag time / Platelet Aggregation Curve: Slope: collagen-induced. On the procedure:
Platelet Aggregation Inhibition Activity Human enriched platelets were used. They were washed once with a washing buffer (138 mM NaCl, 2.7 mM KCl, 12 mM NaHCO3, 0.36 mM NaH2PO4, 5.5 mM Glucose, 1 mM EDTA, pH 6.5) and then resuspended in a suspending buffer (138 mM NaCl, 2.7 mM KCl, 12 mM NaHCO3, 0.36 mM NaH2PO4, 5.5 mM Glucose, 0.49 mM MgCl2, 0.25% gelatin, pH 7.4). Centrifugation at 3,000 rpm for 10 min was followed by resuspension in a suspending buffer, with the platelets adjusted to the density of 4×10^9/ml. Subsequently, 1 ml of the suspension was incubated with 2.5 μl of collagen for 5 min, after which platelet aggregation was measured at 37° C. using a whole-blood aggregometer (Chrono-log, USA).

Another data set concerns human erythrocytes. The data set can be described thus: Human erythrocyte lysis (hemolysis) activity. The data set is classed as cell-based. On the procedure:
In this regard, erythrocyte lysis activity was assayed as reported previously (Sohn, Ho-Yong, 2014. Korean J. Microbiol. Biotechnol. 42: 285-292). Briefly, 100 μl of human erythrocytes, after being washed three times with PBS, was added to each well of 96-well microplates, mixed with 100 μl of each of samples having various concentrations, and incubated at 37° C. for 30 min. Subsequently, the reaction mixture was centrifuged for 10 min (1,500 rpm). After 100 μl of the supernatant was transferred to new microtiter plates, absorbance was read at 414 nm to analyze hemoglobin release according to hemolysis. DMSO (2%) was used as a solvent control for the samples while Triton X-100 (1 mg/ml) served as a control for hemolysis. Hemolysis activity was calculated according to the following equation: (%)Hemolysis=[(Abs. S−Abs. C)/(Abs. T−Abs. C)]×100
Abs. S: Absorbance of sample
Abs. C: Absorbance of DMSO
Abs. T: Absorbance of Triton X-100 added control

A further data set concerns prothrombin. The data set can be described thus: Prothrombin time (plasma clotting). Particulars: clot time sample/clot time DMSO, 3-carene section Table 3. The data set is classed as biochemical. On the procedure:
In an Amelung coagulometer KC-1A tube (Japan), 70 μl of standard plasma (MD Pacific Co., China) was heated, together with 10 μl of each of samples having various concentrations, at 37° C. for 3 min before adding 130 μl of PT reagent thereto. […] This experiment was repeated three times independently. The prothrombin time was expressed as a mean value of the three measurements.

The test system of the next data set is coagulation factors. Nature of the data set: aPTT (activated partial thromboplastin time). The data set is classed as biochemical. The following applies: clot time sample/clot time DMSO, 3-carene section Table 3. How it is done:
Subsequently, 50 μl of CaCl2 (35 mM) was added. […] Instead of samples, DMSO served as a solvent control. […] The aPPT was expressed as a mean value of the measurements of three independent experiments.
Instead of samples, DMSO served as a solvent control. […] The aPPT was expressed as a mean value of the measurements of three independent experiments.

For data set [1] the following is noted: miscible with oil; cited from earlier work.

Where “and” joins values, the source holds several entries; their conditions need not be identical. Equal entries are not always repeated. Some results are limits rather than exact numbers.

Consider `CC(=O)Oc1ccccc1C(=O)O` [Aspirin, aspirin], for which, in the data set on Human enriched platelets (0.125 mg/ml), the “Platelet Aggregation Activity” value is 82.2%, the “Platelet Aggregation Curve: Amplitude” value is reported as 14 ohm, the “Platelet Aggregation Curve: Area under curve” value came out at 78.0 and the “Platelet Aggregation Curve: Lag time” value stood at 35 s. In addition, in the data set on Human enriched platelets (0.125 mg/ml), the “Platelet Aggregation Curve: Slope” value is 2. Further, in the data set on Human enriched platelets (0.25 mg/ml), the “Platelet Aggregation Activity” value was determined as 49.7%, the “Platelet Aggregation Curve: Amplitude” value is recorded as 8 ohm, the “Platelet Aggregation Curve: Area under curve” value is on record as 47.2 and the “Platelet Aggregation Curve: Lag time” value came to 128 s. Besides, the “Platelet Aggregation Curve: Slope” value in the data set with Human enriched platelets (0.25 mg/ml) is 1.

Turning to `C[C@@H]1[C@H](O)[C@@H](C)/C=C/C=C/C=C/C=C/C=C/C=C/C=C/[C@H](O[C@@H]2O[C@H](C)[C@@H](O)[C@H](N)[C@@H]2O)C[C@@H]2O[C@](O)(C[C@@H](O)C[C@@H](O)[C@H](O)CC[C@@H](O)C[C@@H](O)CC(=O)O[C@H]1C)C[C@H](O)[C@H]2C(=O)O` [Amphotericin B, amphotericin B], the Human hemolytic activity is reported as 26.5 ± 9.6% in the data set on human erythrocytes (0.003 mg/ml, flower section Table 3); 38.0 ± 0.7% with human erythrocytes (0.006 mg/ml, flower section Table 3); 38.0 ± 0.7% in the data set on human erythrocytes (0.00625 mg/ml, flower section Table 6); 48.2 ± 5.9% in the data set on human erythrocytes (0.0125 mg/ml, flower section Table 6); 48.2 ± 5.9% in the data set with human erythrocytes (0.0125 mg/ml, leaf section Table 4); 59.5 ± 6.3% in the data set with human erythrocytes (0.025 mg/ml, flower section Table 3). For the same compound, the Human hemolytic activity in the data set with human erythrocytes (0.025 mg/ml, flower section Table 3, listed as amphotericin B) is listed as at least 50%; in the data set with human erythrocytes (0.025 mg/ml, flower section Table 6), 59.5 ± 6.3%; in the data set on human erythrocytes (0.025 mg/ml, leaf section Table 4) it was 59.5 ± 6.3%; in the data set on human erythrocytes (0.025 mg/ml, leaf section Table 4, listed as amphotericin B) it was at least 50%; in the data set on human erythrocytes (0.05 mg/ml, flower section Table 3) it was 80.7 ± 7.3%; in the data set with human erythrocytes (0.05 mg/ml, flower section Table 6), 80.7 ± 7.3%. The “Human hemolytic activity” value turned out to be 80.7 ± 7.3% in the data set on human erythrocytes (0.05 mg/ml, leaf section Table 4); 95.8 ± 0.3% in the data set with human erythrocytes (0.1 mg/ml, flower section Table 3); 95.8 ± 0.3% in the data set with human erythrocytes (0.1 mg/ml, flower section Table 6); 95.8 ± 0.3% in the data set with human erythrocytes (0.1 mg/ml, leaf section Table 4).

Triton X-100: the “Human hemolytic activity” value is 100% and 100.0 ± 0.1% with human erythrocytes (1.0 mg/ml, 37° C. 30 min, leaf section Table 4); 100% and 100.6 ± 0.8% in the data set with human erythrocytes (1.0 mg/ml, flower section Table 3); 100.6 ± 0.8% in the data set with human erythrocytes (1.0 mg/ml, flower section Table 6).

For `O=C(O)c1ccc(O)cc1` [4-Hydroxybenzoic acid, 4-hydroxybenzoic acid], the “Blood coagulation inhibition activity: Prothrombin Time” value in the data set on prothrombin (0.5 mg/ml) is listed as 0.99 ± 0.00. Moreover, the “Blood coagulation inhibition activity: aPTT” value in the data set on coagulation factors (0.5 mg/ml) was found to be 0.94 ± 0.15.

Take `CC1=CCC2C(C1)C2(C)C` (stereo not shown) [Extract 3-Carene, 3-carene]: the “Blood coagulation inhibition activity: Prothrombin Time” value in the data set on prothrombin (0.5 mg/ml) came to 1.05 ± 0.02; with prothrombin (0.75 mg/ml), 1.29 ± 0.00; with prothrombin (1.0 mg/ml), 1.43 ± 0.09; in the data set on prothrombin (1.0 mg/ml, listed as 3-carene) it was 1.43. In addition, the “Blood coagulation inhibition activity: aPTT” value in the data set on coagulation factors (0.5 mg/ml) was determined as 1.23 ± 0.05; in the data set with coagulation factors (0.75 mg/ml) it was 1.61 ± 0.03; in the data set with coagulation factors (1.0 mg/ml), 2.26 ± 0.08; in the data set with coagulation factors (1.0 mg/ml, listed as 3-carene), 2.26. Moreover, the Solubility in water entry in data set [1] is “not soluble in water”.

The values above are taken from US11612627B2, “Method for preventing or treating thrombosis” (ANDONG NATIONAL UNIVERSITY INDUSTRY-ACADEMIC COOPERATION …, priority 2020, dated 2023).
